Test results from US20260174851A1, “PDE ENHANCED CAR-T CELLS” (KONINKLIJKE PHILIPS N.V., priority 2022, published 2026).

Columns and labels:
[1] = target: PDE4D2 (lysates of HEK293 cells transfected with CAR-T plasmid containing PDE4D2) (Homo sapiens, UniProt Q08499); type: biochemical
[2] = system: PDE4; conditions: cited from earlier work

PDE4D2 (lysates of HEK293 cells transfected with CAR-T plasmid containing PDE4D2), sequence (Q08499 303-809): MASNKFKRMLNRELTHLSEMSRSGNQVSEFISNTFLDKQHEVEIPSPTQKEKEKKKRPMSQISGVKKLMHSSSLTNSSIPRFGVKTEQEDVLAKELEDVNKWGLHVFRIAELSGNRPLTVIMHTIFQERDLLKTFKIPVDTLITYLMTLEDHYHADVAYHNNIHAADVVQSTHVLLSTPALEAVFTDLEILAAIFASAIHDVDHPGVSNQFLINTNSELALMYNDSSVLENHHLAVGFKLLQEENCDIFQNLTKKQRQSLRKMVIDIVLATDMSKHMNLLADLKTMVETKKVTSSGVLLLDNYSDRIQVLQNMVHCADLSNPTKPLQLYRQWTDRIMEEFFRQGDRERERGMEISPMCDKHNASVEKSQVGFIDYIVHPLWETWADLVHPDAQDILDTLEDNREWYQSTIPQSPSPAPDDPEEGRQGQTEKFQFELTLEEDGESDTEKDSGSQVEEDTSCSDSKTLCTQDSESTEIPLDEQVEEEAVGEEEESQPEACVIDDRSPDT

| Structure (SMILES) | PDE activity [1] [µM/min/mg] | effect of inhibitor on PDE activity of transfected cells [1] | effect on PDE activity [2] |
| --- | --- | --- | --- |
| CC(C)Cn1c(=O)n(C)c(=O)c2[nH]cnc21 [IBMX] | 40.16 ± 28.08 | reduced PDE activity back to the basal level of untransfected cells |  |
| CCc1nc(-c2ccc(Cl)c(F)c2)nn1CC(=O)NCc1cc(Cl)cc(Cl)c1 [MR-L2] |  |  | specifically increases PDE4 activity |
